What was measured:
Format in all cases: functional
[1] = system: Podosphaera fuliginea; assay: Fungicidal activity against Podosphaera fuliginea assessed as cucumber powdery mildew control under greenhouse at 7.8 ppm foliar application 24 hr after inoculation on upper surface of leaf at 23 +/- 2 degC by curative manner
[2] = system: Pyricularia oryzae; assay: Fungicidal activity against Magnaporthe oryzae assessed as rice blast disease control at 2.5 ppm submerged application measured after 7 days
[3] = system: Thanatephorus cucumeris; assay: Fungicidal activity against Thanatephorus cucumeris assessed as rice sheath blight disease control at 2 ppm foliar application for 24 hr before inoculation at 26 +- 2 measured after 5 days by preventive manner
[4] = system: Pseudoperonospora cubensis; assay: Fungicidal activity against Pseudoperonospora cubensis assessed as cucumber downy mildew disease control at 31.3 ppm foliar application 24 hr before inoculation on upper surface of leaf by preventive manner
[5] = system: Botrytis cinerea; assay: Fungicidal activity against Botryotinia fuckeliana assessed as cucumber gray mold disease control at 31.3 ppm foliar application 24 hr after inoculation at 22 +/- 2 degC measured after 3 days by curative manner
[6] = system: Podosphaera fuliginea; assay: Fungicidal activity against Podosphaera fuliginea assessed as cucumber powdery mildew control under greenhouse at 125 ppm foliar application 24 hr after inoculation on upper surface of leaf at 23 +/- 2 degC by curative manner
[7] = system: Podosphaera fuliginea; assay: Fungicidal activity against Podosphaera fuliginea assessed as cucumber powdery mildew control under greenhouse at 2 ppm foliar application 24 hr after inoculation on upper surface of leaf at 23 +/- 2 degC by curative manner
[8] = system: Pseudoperonospora cubensis; assay: Fungicidal activity against Pseudoperonospora cubensis assessed as cucumber downy mildew disease control at 125 ppm foliar application 24 hr before inoculation on upper surface of leaf by preventive manner
[9] = system: Thanatephorus cucumeris; assay: Fungicidal activity against Thanatephorus cucumeris assessed as rice sheath blight disease control at 31.3 ppm foliar application for 24 hr before inoculation at 26 +- 2 measured after 5 days by preventive manner
[10] = system: Botrytis cinerea; assay: Fungicidal activity against Botryotinia fuckeliana assessed as cucumber gray mold disease control at 125 ppm foliar application 24 hr after inoculation at 22 +/- 2 degC measured after 3 days by curative manner
[11] = system: Pseudoperonospora cubensis; assay: Fungicidal activity against Pseudoperonospora cubensis assessed as cucumber downy mildew disease control at 2 ppm foliar application 24 hr after inoculation on upper surface of leaf by curative manner
[12] = system: Podosphaera fuliginea; assay: Fungicidal activity against Podosphaera fuliginea assessed as cucumber powdery mildew control under greenhouse at 2 ppm foliar application 24 hr before inoculation on upper surface of leaf at 23 +/- 2 degC by preventive manner
[13] = system: Pseudoperonospora cubensis; assay: Fungicidal activity against Pseudoperonospora cubensis assessed as cucumber downy mildew disease control at 7.8 ppm foliar application 24 hr before inoculation on upper surface of leaf by preventive manner
[14] = system: Pyricularia oryzae; assay: Fungicidal activity against Magnaporthe oryzae assessed as rice blast disease control at 0.16 ppm submerged application measured after 7 days
[15] = system: Podosphaera fuliginea; assay: Fungicidal activity against Podosphaera fuliginea assessed as cucumber powdery mildew control under greenhouse at 31.3 ppm foliar application 24 hr before inoculation on upper surface of leaf at 23 +/- 2 degC by preventive manner
[16] = system: Thanatephorus cucumeris; assay: Fungicidal activity against Thanatephorus cucumeris assessed as rice sheath blight disease control at 7.8 ppm foliar application for 24 hr before inoculation at 26 +- 2 measured after 5 days by preventive manner
[17] = system: Botrytis cinerea; assay: Fungicidal activity against Botryotinia fuckeliana assessed as cucumber gray mold disease control at 7.8 ppm foliar application 24 hr after inoculation at 22 +/- 2 degC measured after 3 days by curative manner
[18] = system: Pyricularia oryzae; assay: Fungicidal activity against Magnaporthe oryzae assessed as rice blast disease control at 0.63 ppm submerged application measured after 7 days
[19] = system: Podosphaera fuliginea; assay: Fungicidal activity against Podosphaera fuliginea assessed as cucumber powdery mildew control under greenhouse at 31.3 ppm foliar application 24 hr after inoculation on upper surface of leaf at 23 +/- 2 degC by curative manner
[20] = system: Botrytis cinerea; assay: Fungicidal activity against Botryotinia fuckeliana assessed as cucumber gray mold disease control at 2 ppm foliar application 24 hr after inoculation at 22 +/- 2 degC measured after 3 days by curative manner
[21] = system: Thanatephorus cucumeris; assay: Fungicidal activity against Thanatephorus cucumeris assessed as rice sheath blight disease control at 125 ppm foliar application for 24 hr before inoculation at 26 +- 2 measured after 5 days by preventive manner
[22] = system: Pseudoperonospora cubensis; assay: Fungicidal activity against Pseudoperonospora cubensis assessed as cucumber downy mildew disease control at 125 ppm foliar application 24 hr after inoculation on upper surface of leaf by curative manner
[23] = system: Pseudoperonospora cubensis; assay: Fungicidal activity against Pseudoperonospora cubensis assessed as cucumber downy mildew disease control at 2 ppm foliar application 24 hr before inoculation on upper surface of leaf by preventive manner
[24] = system: Pseudoperonospora cubensis; assay: Fungicidal activity against Pseudoperonospora cubensis assessed as cucumber downy mildew disease control at 7.8 ppm foliar application 24 hr after inoculation on upper surface of leaf by curative manner
[25] = system: Pseudoperonospora cubensis; assay: Fungicidal activity against Pseudoperonospora cubensis assessed as cucumber downy mildew disease control at 31.3 ppm foliar application 24 hr after inoculation on upper surface of leaf by curative manner
[26] = system: Pyricularia oryzae; assay: Fungicidal activity against Magnaporthe oryzae assessed as rice blast disease control at 10 ppm submerged application measured after 7 days
[27] = system: Podosphaera fuliginea; assay: Fungicidal activity against Podosphaera fuliginea assessed as cucumber powdery mildew control under greenhouse at 7.8 ppm foliar application 24 hr before inoculation on upper surface of leaf at 23 +/- 2 degC by preventive manner
[28] = system: Podosphaera fuliginea; assay: Fungicidal activity against Podosphaera fuliginea assessed as cucumber powdery mildew control under greenhouse at 125 ppm foliar application 24 hr before inoculation on upper surface of leaf at 23 +/- 2 degC by preventive manner

Structure (SMILES)	Activity [1]	Activity [3]	Activity [4]	Activity [5]	Activity [6]	Activity [7]	Activity [8]	Activity [9]	Activity [10]	Activity [12]	Activity [13]	Activity [15]	Activity [16]	Activity [17]	Activity [19]	Activity [20]	Activity [21]	Activity [23]	Activity [27]	Activity [28]	further results
CNC(=O)/C(=N/OC)c1ccccc1Oc1cccc(Oc2ccccc2)c1	50%	70%	70%	50%	50%	50%	70%	70%	50%	70%	70%	70%	70%	50%	50%	50%	70%	70%	70%	70%	Activity [2]: 50%; Activity [11]: 50%; Activity [14]: 50%; Activity [18]: 50%; Activity [22]: 50%; Activity [24]: 50%; Activity [25]: 50%; Activity [26]: 50%
CNC(=O)/C(=N/OC)c1ccccc1Oc1ccc(C)cc1	50%	70%	<70%	50%	50%	50%	<70%	70%	50%	70%	<70%	70%	70%	50%	50%	50%	70%	<70%	70%	70%	Activity [2]: 50%; Activity [14]: 50%; Activity [18]: 50%; Activity [26]: 50%
CNC(=O)/C(=N/OC)c1ccccc1Oc1ccccc1C	50%	<70%	<70%	50%	50%	50%	<70%	<70%	50%	70%	<70%	70%	<70%	50%	50%	50%	<70%	<70%	70%	70%	Activity [2]: 50%; Activity [14]: 50%; Activity [18]: 50%; Activity [26]: 50%
CNC(=O)/C(=N/OC)c1ccccc1Oc1ccc(Cl)c(C)c1	50%	70%	70%	50%	50%	50%	70%	70%	50%	70%	70%	70%	70%	50%	50%	50%	70%	70%	70%	70%	Activity [2]: 50%; Activity [11]: 50%; Activity [14]: 50%; Activity [18]: 50%; Activity [22]: 50%; Activity [24]: 50%; Activity [25]: 50%; Activity [26]: 50%
CNC(=O)/C(=N/OC)c1ccccc1Oc1ccc(Cl)c(Cl)c1	50%	70%	70%	50%	50%	50%	70%	70%	50%	70%	70%	70%	70%	50%	50%	50%	70%	70%	70%	70%	Activity [2]: 50%; Activity [11]: 50%; Activity [14]: 50%; Activity [18]: 50%; Activity [22]: 50%; Activity [24]: 50%; Activity [25]: 50%; Activity [26]: 50%
CNC(=O)/C(=N/OC)c1ccccc1Oc1ccc(I)cc1	50%	70%	70%	50%	50%	50%	70%	70%	50%	70%	70%	70%	70%	50%	50%	50%	70%	70%	70%	70%	Activity [2]: 50%; Activity [11]: 50%; Activity [14]: 50%; Activity [18]: 50%; Activity [22]: 50%; Activity [24]: 50%; Activity [25]: 50%; Activity [26]: 50%
CNC(=O)/C(=N/OC)c1ccccc1Oc1cccc(OC)c1	50%	70%	70%	50%	50%	50%	70%	70%	50%	70%	70%	70%	70%	50%	50%	50%	70%	70%	70%	70%	Activity [2]: 50%; Activity [11]: <50%; Activity [14]: 50%; Activity [18]: 50%; Activity [22]: <50%; Activity [24]: <50%; Activity [25]: <50%; Activity [26]: 50%
CNC(=O)/C(=N/OC)c1ccccc1Oc1ccc([N+](=O)[O-])cc1	50%	<70%	<70%	50%	50%	50%	<70%	<70%	50%	70%	<70%	70%	<70%	50%	50%	50%	<70%	<70%	70%	70%	Activity [11]: <50%; Activity [22]: <50%; Activity [24]: <50%; Activity [25]: <50%
